# The source made the active and inactive calls. No cut-off for these calls is given here.
# Biological target: PCSK9/LDLR (Homo sapiens) (UniProt Q8NBP7+P01130)
# Assay: Inhibition of PCSK9 (unknown origin) interaction with LDLR (unknown origin) by ELISA
# Format: protein assay
# Settings: not given
# Chain of PCSK9/LDLR (Homo sapiens) (P01130 22-860 partner limits assumed): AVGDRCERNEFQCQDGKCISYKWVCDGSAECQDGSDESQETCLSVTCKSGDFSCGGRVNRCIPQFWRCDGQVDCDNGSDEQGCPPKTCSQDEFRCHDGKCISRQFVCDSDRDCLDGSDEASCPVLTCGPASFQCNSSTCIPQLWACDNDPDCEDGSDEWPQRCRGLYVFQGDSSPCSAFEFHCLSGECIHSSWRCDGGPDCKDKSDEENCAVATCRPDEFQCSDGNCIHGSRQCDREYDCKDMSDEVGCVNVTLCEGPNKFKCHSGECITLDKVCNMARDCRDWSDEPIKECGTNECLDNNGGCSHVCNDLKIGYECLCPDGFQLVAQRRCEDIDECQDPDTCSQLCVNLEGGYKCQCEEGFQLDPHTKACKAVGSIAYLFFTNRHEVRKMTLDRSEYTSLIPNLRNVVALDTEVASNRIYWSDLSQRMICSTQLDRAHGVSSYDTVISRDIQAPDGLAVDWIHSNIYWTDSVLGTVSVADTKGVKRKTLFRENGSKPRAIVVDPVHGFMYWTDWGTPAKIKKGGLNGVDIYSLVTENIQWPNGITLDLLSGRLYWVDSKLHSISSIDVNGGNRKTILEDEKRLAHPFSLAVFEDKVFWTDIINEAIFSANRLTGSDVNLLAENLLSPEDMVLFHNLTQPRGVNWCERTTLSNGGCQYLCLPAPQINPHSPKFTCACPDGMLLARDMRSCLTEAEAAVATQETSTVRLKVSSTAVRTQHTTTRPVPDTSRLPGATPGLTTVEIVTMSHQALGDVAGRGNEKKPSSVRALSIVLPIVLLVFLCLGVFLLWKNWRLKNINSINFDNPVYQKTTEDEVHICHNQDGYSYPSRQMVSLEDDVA
# Chain of PCSK9/LDLR (Homo sapiens) (Q8NBP7 31-152 limits assumed): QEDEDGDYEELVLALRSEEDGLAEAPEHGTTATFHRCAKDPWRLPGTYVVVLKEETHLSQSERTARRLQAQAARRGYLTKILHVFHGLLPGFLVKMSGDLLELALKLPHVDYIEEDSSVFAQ
# Chain of PCSK9/LDLR (Homo sapiens) (Q8NBP7 153-692 limits assumed): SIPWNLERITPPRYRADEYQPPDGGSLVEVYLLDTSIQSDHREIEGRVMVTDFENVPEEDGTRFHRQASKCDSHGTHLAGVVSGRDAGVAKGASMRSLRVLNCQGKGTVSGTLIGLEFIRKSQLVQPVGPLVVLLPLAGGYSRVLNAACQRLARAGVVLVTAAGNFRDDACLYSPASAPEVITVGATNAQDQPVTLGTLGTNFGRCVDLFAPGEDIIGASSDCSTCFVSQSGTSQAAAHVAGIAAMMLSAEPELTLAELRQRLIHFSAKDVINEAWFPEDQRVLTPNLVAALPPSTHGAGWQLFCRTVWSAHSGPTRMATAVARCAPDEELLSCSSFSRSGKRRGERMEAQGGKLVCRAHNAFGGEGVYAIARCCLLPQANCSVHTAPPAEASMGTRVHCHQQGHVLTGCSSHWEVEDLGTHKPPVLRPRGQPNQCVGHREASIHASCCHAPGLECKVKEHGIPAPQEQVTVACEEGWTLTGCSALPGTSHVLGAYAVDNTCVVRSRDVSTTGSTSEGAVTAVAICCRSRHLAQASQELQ
row,SMILES,inhibition
1,CC(=O)O[C@H]1C[C@@H](O)[C@@]2(C)C=C3OC(=O)C(C)=C3C[C@@H]2[C@H]1C,inactive
2,CO[C@]12C[C@@]3(C)[C@H](OC(C)=O)C(=O)C=C(C)[C@@H]3CC1=C(C)C(=O)O2,inactive
3,COC(=O)[C@H](C)[C@H]1C[C@]2(O)C(C)=CC(=O)[C@H](OC(C)=O)[C@]2(C)CC1=O,inactive
4,COc1c(O)cc2c(c1O)C(=O)C[C@@H](c1ccc(O)cc1)O2,inactive
5,CC(=O)O[C@H]1C[C@@H](O)[C@@]2(C)C[C@H](O)/C(=C(/C)C(=O)O)C[C@@H]2[C@H]1C,inactive
6,CO[C@]12C[C@@]3(C)[C@H](CC1=C(C)C(=O)O2)C(C)=CC(=O)[C@@H]3OC(C)=O,inactive
7,CC1=CC(=O)[C@H](O)[C@@]2(C)C=C3OC(=O)C(C)=C3C[C@H]12,inactive
8,CC(=O)O[C@H]1C[C@@H](O)[C@@]2(C)C[C@@]3(O)OC(=O)C(C)=C3C[C@@H]2[C@H]1C,inactive
9,CC(=O)O[C@H]1C(=O)C=C(C)[C@H]2CC3=C(C)C(=O)OC3=C[C@@]21C,inactive
10,CC1=C2C[C@@H]3[C@@H](C)C(=O)C=C[C@@]3(C)C[C@@]2(O)OC1=O,inactive
11,CC(=O)O[C@H]1C[C@H](O)[C@]2(C)C[C@@H]3OC(=O)C(C)=C3C[C@H]2[C@@H]1C,inactive
12,CC(=O)O[C@@H]1C(=O)C=C(C)[C@]2(O)C/C(=C(\C)C(=O)O)C(O)=C[C@]12C,inactive
13,CC(=O)O[C@H]1C(=O)C=C(C)[C@H]2CC3=C(C)C(=O)O[C@]3(O)C[C@@]21C,inactive
14,CC(=O)O[C@H]1C(=O)C=C(C)[C@H]2CC3=C(C)C(=O)O[C@@H]3C[C@@]21C,inactive
15,COc1c(O)cc2oc(-c3ccc(O)cc3)cc(=O)c2c1O,inactive
16,CO[C@@H]1CC(=O)[C@H](C)[C@H]2C/C(=C(\C)C(=O)O)C[C@@]21C,inactive
17,CC(=O)O[C@@H]1C(=O)C=C(C)[C@@H]2CC3=C(C)C(=O)O[C@@H]3C[C@@]12C,inactive
18,CC1=C2C[C@@H]3[C@@H](C)[C@@H](O)C[C@@H](O)[C@@]3(C)C=C2OC1=O,inactive
19,CO[C@@]12C[C@]3(C)[C@H](O)C[C@H](OC(C)=O)[C@H](C)[C@H]3CC1=C(C)C(=O)O2,inactive

# System: not listed separately
# Assay: Down regulation of PCSK9 mRNA expression in human HepG2 cells incubated for 24 hrs by SYBR green dye-based qRT-PCR analysis
# Format: functional, cell-based
# Settings: HepG2, 24 h
row,SMILES,IC50 [µM]
1,CO[C@]12C[C@@]3(C)[C@H](OC(C)=O)C(=O)C=C(C)[C@@H]3CC1=C(C)C(=O)O2,25.2
2,CC1=C2C[C@@H]3[C@@H](C)C(=O)C=C[C@@]3(C)C[C@@]2(O)OC1=O,27.8
3,CO[C@@H]1CC(=O)[C@H](C)[C@H]2C/C(=C(\C)C(=O)O)C[C@@]21C,24.4
4,COc1ccc2cc3[n+](cc2c1OC)CCc1cc2c(cc1-3)OCO2 [BERBERINE CHLORIDE],13.8

# System: HepG2
# Assay: Up regulation of LDLR protein expression in human HepG2 cells at 10 to 50 uM incubated for 24 hrs by Western blotting analysis
# Format: functional, cell-based
# Settings: dose 10-50 µM
row,SMILES,Activity
1,CC1=C2C[C@@H]3[C@@H](C)C(=O)C=C[C@@]3(C)C[C@@]2(O)OC1=O,Active
2,CO[C@@H]1CC(=O)[C@H](C)[C@H]2C/C(=C(\C)C(=O)O)C[C@@]21C,Active

# System: HepG2
# Assay: Down regulation of PCSK9 mRNA expression in human HepG2 cells at 50 uM incubated for 24 hrs by SYBR green dye-based qRT-PCR analysis
# Format: functional, cell-based
# Settings: not given
row,SMILES,Activity
1,CO[C@]12C[C@@]3(C)[C@H](OC(C)=O)C(=O)C=C(C)[C@@H]3CC1=C(C)C(=O)O2,Active
2,CC1=C2C[C@@H]3[C@@H](C)C(=O)C=C[C@@]3(C)C[C@@]2(O)OC1=O,Active
3,CO[C@@H]1CC(=O)[C@H](C)[C@H]2C/C(=C(\C)C(=O)O)C[C@@]21C,Active

# System: HepG2
# Assay: Down regulation of PCSK9 protein expression in human HepG2 cells at 10 to 50 uM incubated for 24 hrs by Western blotting analysis
# Format: functional, cell-based
# Settings: dose 10-50 µM
row,SMILES,Activity
1,CC1=C2C[C@@H]3[C@@H](C)C(=O)C=C[C@@]3(C)C[C@@]2(O)OC1=O,Active
2,CO[C@@H]1CC(=O)[C@H](C)[C@H]2C/C(=C(\C)C(=O)O)C[C@@]21C,Active

# Reference: ChEMBL document CHEMBL4819031, “Sesquiterpenoids from the Aerial Parts of Salvia plebeia with Inhibitory Activities on Proprotein Convertase Subtilisin/Kexin Type 9 Expression” (J Nat Prod, 2021)
